Data on one compound can be found in patent publication US7915198B2, “Aqueous solution of non-colloidal silicic acid and boric acid” (Sabalo, N.V., priority 2002, dated 2011).

One series has as its system Phytophthora infestan. The series is classed as in vivo, potato plants (strain Bintje). The protocol: (§1) Solutions of boric acid in water were prepared containing different concentrations of boric acid: 1%, 0.1%, 0.03%, 0.01%, 0.005%, 0.0003% and 0.0001% (W/V). Sodium silicate (10% Si) was diluted tenfold in water and further 1000 times diluted in the solutions or in water with pH 4.5 after dilution, resulting in a final silicon concentration of 0.0010 wt. % (or 10 μg/ml Si)
(§2) All solutions were filtered on a 0.1μ membrane filter. […] The solutions were used instantaneously. A potato garden was used to test the compounds against infection with Phytophthora infestan: 20 m^2 culture were used for testing and each m^2 contained 6 potato plants (strain Bintje) of two months old. Two times a week plant leaves were sprayed with the different solutions (about 10 liters/are). Four square meters were used as placebo.

For series [1], the system named is potato plants (strain Bintje). The protocol:
as §1, §2

Consider `OB(O)O` [boric acid], for which the antifungal effect result with Phytophthora infestan (1%, 0.1% and 0.03% boric acid) is “no antifungal effect”. Moreover, the fungal infection result with Phytophthora infestan (From 0.003% boric acid on) is on record as “fungal infection decreased”. Also, the “toxic reactions (necrotic effects on leaves such as black spots, holes)” value in series [1] (1%, 0.1% and 0.03% boric acid, after 1 week treatment) is recorded as “toxic reactions”. Further, the “strength of plant leaves” value in series [1] (From 0.003% boric acid on) was “plant leaves were stronger”.
